Laboratory results as given in PMC3320615, “β-Microseminoprotein Endows Post Coital Seminal Plasma with Potent Candidacidal Activity by a Calcium- and pH-Dependent Mechanism” (PLoS Pathogens, 2012).

B1: recombinant MSP: Recombinant human β-microseminoprotein from R&D Systems (protein)
chain: SCYFIPNEGVPGDSTRKCMDLKGNKHPINSEWQTDNCETCTCYETEISCCTLVSTPVGYDKDNCQRIFKKEDCKYIVVEKKDPKKTCSVSEWII

Tests used:
[1] = system: Candida albicans ATCC 90028; assay: CFU assay with C. albicans; format: cell-based; details: for Estimate (difference between means of log values): control - treatment, pH 4
Text: Candida albicans strains: ATCC 90028, CAF-1-2, SC5814, BM4f35II68, vaginal clinical isolates from Dept. of Clincal Microbiology, Skåne University Hospital, SO_303369 and SO_503471. Candida parapsilosis strains: ATCC 90018, BD1800, BD17837, and BM24/68/09. Candida glabrata strains: ATCC 90030, clinical isolates from Dept. of Clincal Microbiology, Skåne University Hospital, SO_3336, SO_3400 and SO_503413. All strains were inoculated from frozen culture and grown in Yeast extract-Peptone-Dextrose (YPD) (Sigma) and on Sabourand Dextrose Broth (SAB) (Difco) plates at 30°C with 5% (v/v) CO2. If not otherwise stated, ATCC 90028 was used for candidacidal experiments.
(§1) Candida albicans was grown over night, washed, and resuspended in 10 mM Tris, 5 mM glucose, pH 7.4 or pH 4. Approximately 4×10^3 to 10^4 CFU of C. albicans were incubated with the test substance in low or neutral pH buffer for 4 h at 37°C. After incubation, the suspension was diluted and plated. Colonies were counted after two days incubation of the plates at 30°C. Bacteria from overnight cultures were inoculated in fresh medium and grown for 3 h, washed in 10 mM Tris, 5 mM glucose pH 7.4. Approximately 8×10^4 CFU were incubated with sample in 10 mM Tris, 5 mM glucose pH 7.4 or pH 4 for 1 h at 37°C, diluted, plated and incubated over night at 37°C and the colonies counted.
Statistical analysis was performed using SAS 9.2 software (SAS Institute, Cary, NC). Colony counts were log transformed. In order to choose the statistical method, interactions between the Treatment and Experiment were investigated. Treatments were screened by doing pair wise comparisons of each treatment to a control. Statistical tests used for the comparisons included MIXED procedure and LSMEANS statement. All tests where P-value<.05 were considered to indicate statistical significance. P-values were not adjusted for the multiple comparisons.
“Estimate” is the estimate of the difference between means of log values of treatment 1 and treatment 2

HaCaT cells = assay: LDH release from HaCaT cells; format: cell-based, human; details: 100 µM; over night; colorimetric; vs 2% Triton-X100
Experimental: (§2) The cytotoxicity of MSP was evaluated by the ability of 100 µM MSP66–76 or MSP66–76E/Q to cause LDH release from HaCaT cells and lysis of erythrocytes.
(§3) Supplementary file ppat.1002625.s006.tif: Table S1 Cytoxic and hemolytic Effect of MSP66–76E/Q and MSP66–76. HaCaT cells were treated with 100 µM of MSP66–76E/Q and MSP66–76 over night. The release of LDH was subsequently determined by colorimetric assay and depicted as percent of LDH release of cells treated with 2% Triton- X100. Erythrocytes were treated for 1 ½ hour with 100 µM of MSP66–76E/Q and MSP66–76 followed by centrifugation. Lysis was determined by measuring hemoglobin in the supernatant by measuring the absorbance at 550 nm. Results are depicted as % of lysis compared to lysis obtained by 2% Triton-X100. (TIF) Click here for additional data file.

erythrocytes = assay: Lysis of erythrocytes; format: cell-based, human; details: 100 µM; 1 ½ hour; absorbance at 550 nm; vs 2% Triton-X100
Experimental: as §2, §3

C. albicans = assay: Antifungal gel overlay assay (AU-PAGE); format: cell-based, Candida albicans
Experimental: Gel overlay assay was performed essentially as described. Briefly, duplicate samples were run on native Acid Urea (AU-PAGE) gels in 5% (v/v) acetic acid at 100 V for 1 h 20 min. Candida albicans was grown over night, washed and resuspended in 10 mM NaPO4 pH 7.4 and approximately 1×10^5 CFU were added to 12 ml melted underlay agarose (10 mM NaPO4, pH 7.4, 0.03% SAB, 1% agarose type 1 (Sigma, St. Louis, MO)) and poured into a square Petri dish. One AU-gel was stained with Coomassie brilliant blue and one AU gel was washed 3×4 min in 10 mM NaPO4, pH 7.4 and then placed on top of the agarose and incubated for 4 h at 37°C. The AU gel was then removed and an overlay agarose (6% SAB, 1% agarosetype 1 (Sigma)) was poured on top of the underlay and incubated over night at 30°C. To make the clearing zones more visible, the agarose was stained with Coomassie brilliant blue followed by destaining.

E. coli (strain 37.4) = assay: Antibacterial CFU assay; format: cell-based; details: purified MSP 10 µM + 20 µM EDTA or recombinant dialyzed MSP 10 µM + 10 µM EDTA; low and neutral pH; data not shown
Experimental: as §1, with “E. coli (strain 37.4), S. aureus (strain 5120), S. pyogenes (M5 Manfredo), S. agalactiae (SB1), and E. faecalis (strain 2374) were grown in THY medium (Todd Hewitt with addition of yeast) and on THY agar plates at 37°C with 5% (v/v) CO2. Candida” for “Candida”

[2] = system: E. faecalis (strain 2374); assay: Antibacterial CFU assay; format: cell-based; details: purified MSP 10 µM + 20 µM EDTA or recombinant dialyzed MSP 10 µM + 10 µM EDTA; low and neutral pH; data not shown
Experimental: as §1, with “E. coli (strain 37.4), S. aureus (strain 5120), S. pyogenes (M5 Manfredo), S. agalactiae (SB1), and E. faecalis (strain 2374) were grown in THY medium (Todd Hewitt with addition of yeast) and on THY agar plates at 37°C with 5% (v/v) CO2. Candida” for “Candida”

S. agalactiae (SB1) = assay: Antibacterial CFU assay; format: cell-based; details: purified MSP 10 µM + 20 µM EDTA or recombinant dialyzed MSP 10 µM + 10 µM EDTA; neutral pH; data not shown
Experimental: as §1, with “E. coli (strain 37.4), S. aureus (strain 5120), S. pyogenes (M5 Manfredo), S. agalactiae (SB1), and E. faecalis (strain 2374) were grown in THY medium (Todd Hewitt with addition of yeast) and on THY agar plates at 37°C with 5% (v/v) CO2. Candida” for “Candida”

S. aureus (strain 5120) = assay: Antibacterial CFU assay; format: cell-based; details: purified MSP 10 µM + 20 µM EDTA or recombinant dialyzed MSP 10 µM + 10 µM EDTA; neutral pH; data not shown
Experimental: as §1, with “E. coli (strain 37.4), S. aureus (strain 5120), S. pyogenes (M5 Manfredo), S. agalactiae (SB1), and E. faecalis (strain 2374) were grown in THY medium (Todd Hewitt with addition of yeast) and on THY agar plates at 37°C with 5% (v/v) CO2. Candida” for “Candida”

[3] = system: S. pyogenes (M5 Manfredo); assay: Antibacterial CFU assay; format: cell-based; details: purified MSP 10 µM + 20 µM EDTA or recombinant dialyzed MSP 10 µM + 10 µM EDTA; neutral pH; data not shown
Experimental: as §1, with “E. coli (strain 37.4), S. aureus (strain 5120), S. pyogenes (M5 Manfredo), S. agalactiae (SB1), and E. faecalis (strain 2374) were grown in THY medium (Todd Hewitt with addition of yeast) and on THY agar plates at 37°C with 5% (v/v) CO2. Candida” for “Candida”

Row | Molecule | Effect of 0.5 mM calcium on antifungal activity ([1]; acidic pH, Figure S2) | Estimate (difference between means of log values) ([1]; 140 µM + 0.5 mM calcium, experiment 1) | Estimate (difference between means of log values) ([1]; 140 µM + 0.5 mM calcium, experiment 2) | Estimate (difference between means of log values) ([1]; 140 µM + 0.5 mM calcium, experiment 3) | Estimate (difference between means of log values) ([1]; 140 µM + 0.5 mM magnesium, experiment 1) | Estimate (difference between means of log values) ([1]; 140 µM + 0.5 mM magnesium, experiment 2) | Estimate (difference between means of log values) ([1]; 140 µM + 0.5 mM magnesium, experiment 3) | Estimate (difference between means of log values) ([1]; 140 µM, experiment 1) | Estimate (difference between means of log values) ([1]; 140 µM, experiment 2) | Estimate (difference between means of log values) ([1]; 140 µM, experiment 3) | Calcium concentration inhibiting the antifungal activity ([1]; neutral pH, Figure S2) | LDH release from HaCaT cells (HaCaT cells) | Lysis of erythrocytes (erythrocytes) | Clearing zone in antifungal gel overlay assay (C. albicans) | Fungicidal activity in CFU assay ([1]; native MSP 10 µM + 20 µM EDTA or recombinant dialyzed MSP 10 µM + 10 µM EDTA) | Antibacterial activity in CFU assay (E. coli (strain 37.4)) | Antibacterial activity in CFU assay [2] | Antibacterial activity in CFU assay (S. agalactiae (SB1)) | Antibacterial activity in CFU assay (S. aureus (strain 5120)) | Antibacterial activity in CFU assay [3]
1 | RIFKKQDCKYI [MSP66–76E/Q, mutated form of MSP66–76 where E71 was substituted with a glutamine] | not inhibited | 3.1854 | 2.1182 | 2.6879 | 4.0137 | 1.7951 | 4.5634 | 5.3523 | 5.6354 | 5.8836 | 50 to 100 µM | No significant LDH release | No significant LDH release or lysis | – | – | – | – | – | – | –
2 | prostate specific antigen: major protein from the prostate [reference compound] | – | – | – | – | – | – | – | – | – | – | – | – | – | did not give rise to clearing zones | – | – | – | – | – | –
3 | B1 | – | – | – | – | – | – | – | – | – | – | – | – | – | displayed antifungal activity by producing a clearing zone | prominent fungicidal activity | no antibacterial activity | no antibacterial activity | no antibacterial activity | no antibacterial activity | no antibacterial activity
